What was measured:
[1] = test system: colonic cancer cells HCT116; assay: HCT116 colonic cancer xenograft in nude mice, two weeks of drug delivery (Embodiment 1): cancer volume and weight; type: in vivo; settings: HCT116, ig, within 2 weeks, vs solvent group, FIG. 1-3
From the text: Nude mice were transplanted with colonic cancer cells HCT116; after the cancer volumes reached 200-300 mm3, the mice were randomly grouped, 8 pieces in each group; the mice were fed with drugs for two weeks. The drug delivery solution can be seen in Table 2 below: […]

[2] = cited from earlier work; for oral absorption: taken orally
[3] = cited from earlier work
[4] = test system: dihydropyrimidine dehydrogenase (DPD); settings: cited from earlier work

For `CCCCCOC(=O)Nc1nc(=O)n([C@@H]2O[C@H](C)[C@@H](O)[C@H]2O)cc1F` [Capecitabine, 5′-deoxy-5-fluoro-N[(pentyloxy)carbonyl]cytidine], the “volume and weight of the cancer” value [1] is listed as “failed to reduce the volume and weight of the cancer”, the “5-FU concentration in the cancer tissues versus that in the blood” value ([2]; after the drug is taken orally) is listed as “is 100 times higher” and the t1/2 ([2]; in vivo) is listed as “orally. t1/2 0.5~1.0 h”. For the same compound, the oral absorption [2] was “Quickly absorbed by”.

In the case of `O=C(O)c1nc(=O)[nH]c(=O)[nH]1` [Oteracil potassium (OXO), Oteracil potassium], the “anti-cancer activities when individually used” value [3] is listed as “no obvious anti-cancer activities”.

For `Oc1cc(O)c(Cl)cn1` [Gimeracil (CDHP), 2,4-dyhydroxy-5-chloro pyridine], the “5-FU degradation inhibition effect relative to uracil” value [4] is listed as 180 times that of the uracil, the “DPD inhibiting effect relative to uracil” value ([4]; reversible inhibitor of the DPD) is listed as 180 times that of uracil and the “anti-cancer activities when individually used” value [3] is listed as “no obvious anti-cancer activities”.

In the case of `O=c1[nH]cc(F)c(=O)[nH]1` [5-Fluorouracil (5-FU), 5-Fluorouracil], the t1/2 ([2]; in vivo) is given as “absorption t1/210~20 min,” and the oral absorption [2] is given as “Incomplete oral”.

For `O=c1[nH]c(=O)n(C2CCCO2)cc1F` (centres unmarked) [Tegafur (FT-207), 1-(etrahydro-2-furyl)-5-fluoro-2,4(1H,3H)-pyrimidinedione], the lipid solubility ([2]; in vivo) is given as “tract. It has higher”, the t1/2 ([2]; in vivo) is given as “absorption t1/25 h” and the oral absorption [2] is given as “Good oral”. For the same compound, the “discharged in the original form along with the urine” value ([2]; within 24 h after drug delivery) was 23% is discharged.
